Experimental data taken from patent US9040713B2, “Methods of managing blood sugar levels and compositions related thereto” (EMORY UNIVERSITY, priority 2010, dated 2015).

What was measured:
[1] = target: T1, TrkB (Homo sapiens, UniProt Q16620); test: TrkB phosphorylation in transfected HEK293 cells (Western blot); format: cell-based; conditions: 5 μM
T1 construct: expressed in transfected cells; host or cells: HEK293

[2] = target: FGFR1 (Homo sapiens, UniProt P11362); test: RTK kinase profile screen assay; format: biochemical; conditions: 10 μM
[3] = target: T2, GST-EGFRTK (Homo sapiens, UniProt P00533); test: In vitro kinase assay (histone H2B phosphorylation); format: biochemical; conditions: different concentrations of 4524-E7
T2 construct: histone phosphorylation by recombinant IGFR or EGFR tyrosine kinase
Description: (§1) Parental CHO cells were used as a negative control (Bottom panel). The fluorescence-labeled cells were analyzed on flow cytometry. (B) 4524-E7 protects IRTK from proteolysis. GST-IRTK was subjected to limited trypsin or chymotrypsin digestion in the presence of 4524-E7 (50 μM), ATPyS (5 μM) or both at 37° C. for 5 min. The reaction mixture was resolved by SDS-PAGE, followed by silver staining Cleaved fragments were asterisked. (C) 4524-E7 increases IRTK activity in vitro. Recombinant GST-IRTK, GST-IGFRTK, and GST-EGFRTK were incubated with different concentrations of 4524-E7 or 10 μM 2—NH2-NQ and the kinase activity was examined by monitoring the phosphorylation of histone H2B. (E) In vitro kinase activity of various IRTK/IGF-1R kinase hybrids. The GFP-tagged kinases were expressed in HEK293, immunoprecipitated and incubated with different concentrations of 4524-E7 as indicated. […] Expressions of the kinases were also verified (lower panel).
(§2) To evaluate if 4524-E7 directly binds to the IR kinase domain, a partial proteolysis assay was performed with recombinant IRTK domain using trypsin or chymotrypsin, which was used before to characterize the interaction between IR and its small molecular ligand DAQ B1. Recombinant GST-tagged IRTK with either DMSO, 50 μM 4524-E7 or ATP-γ-S, were incubated and followed by limited trypsin or chymotrypsin digestion. […]

[4] = target: T3, GST-IGFRTK (Homo sapiens, UniProt P08069); test: as above; format: biochemical; conditions: different concentrations of 4524-E7
T3 construct: histone phosphorylation by recombinant IGFR or EGFR tyrosine kinase
Description: as §1, §2

[5] = target: GFP-IRTK R2; test: In vitro kinase assay of IRTK/IGF-1R kinase hybrids; format: biochemical, human; conditions: R2 region of IRTK replaced with IGF-1R
Description: as §1
To test if these regions are the action sites of 4524-E7, several GFP-tagged hybrid kinases were generated with R1 (GFP-IRTK R1), R2 (GFP-IRTK R2) or both (GFP-IRTK R1+R2) regions of IRTK and replaced with the corresponding sequence of IGF-1R. These mutants were then used to perform the in vitro kinase assay in the presence of 4524-E7. […]

[6] = system: C57B5L/6J mice; test: Hyperinsulinemic-euglycemic clamp; format: in vivo, mouse; conditions: 5 mg/kg oral 1 h before clamp
Description: (A) 4524-E7 provokes IR phosphorylation in various tissues of mice. Three-month-old C57BL/6J mice were starved for 12 h and then dosed with vehicle (0.5% methylcellulose) or 4524-E7 (20 mg/kg). Cell lysates from liver, muscle, and WAT were prepared at 3, 4, and 5 h after drug administration and analyzed by immunoblotting. (B) Basal and insulin-stimulated hepatic glucose production rates were measured by hyperinsulinemic-euglycemic clamp. […] (C) Hypoglycemic effect of 4524-E7 in C57BL/6J mice. C57BL/6J mice were starved for 12 h and then orally administrated with vehicle (0.5% methylcellulose) or 4524-E7 (5 mg/kg). Blood glucose was monitored at different time points as indicated (n=8, *: P<0.05, two-way ANOVA). (D) Hypoglycemic effect in db/db mice. db/db mice were starved for 12 h and then orally injected with vehicle (0.5% methylcellulose) or 4524-E7 (5 mg/kg). Blood glucose was monitored at different time points as indicated (n=5, *: P<0.05, two-way ANOVA). (E) Glucose tolerance test in ob/ob mice. The mice were starved for 12 hours and then orally administrated with vehicle or 4524-E7 (5 mg/kg). A bonus of glucose (2 gm/kg) was injected intraperitoneally 1 hour later. Blood glucose was then measured at 30 min intervals (n=13, *: P<0.05; **: P<0.01, two-way ANOVA).
C57B5L/6J mice were fasted for 12 h. […] In vivo hepatic glucose output was then determined by hyperinsulinemic-euglycemic clamp.

[7] = target: T4, IR (Homo sapiens, UniProt P06213); test: IR phosphorylation in transfected HEK293 cells (Western blot); format: cell-based; parameters: expressed in transfected cells; host or cells: HEK293; conditions: 4524-E7 5 μM, insulin 100 nM
Target sequence in this assay (P06213 28-1382): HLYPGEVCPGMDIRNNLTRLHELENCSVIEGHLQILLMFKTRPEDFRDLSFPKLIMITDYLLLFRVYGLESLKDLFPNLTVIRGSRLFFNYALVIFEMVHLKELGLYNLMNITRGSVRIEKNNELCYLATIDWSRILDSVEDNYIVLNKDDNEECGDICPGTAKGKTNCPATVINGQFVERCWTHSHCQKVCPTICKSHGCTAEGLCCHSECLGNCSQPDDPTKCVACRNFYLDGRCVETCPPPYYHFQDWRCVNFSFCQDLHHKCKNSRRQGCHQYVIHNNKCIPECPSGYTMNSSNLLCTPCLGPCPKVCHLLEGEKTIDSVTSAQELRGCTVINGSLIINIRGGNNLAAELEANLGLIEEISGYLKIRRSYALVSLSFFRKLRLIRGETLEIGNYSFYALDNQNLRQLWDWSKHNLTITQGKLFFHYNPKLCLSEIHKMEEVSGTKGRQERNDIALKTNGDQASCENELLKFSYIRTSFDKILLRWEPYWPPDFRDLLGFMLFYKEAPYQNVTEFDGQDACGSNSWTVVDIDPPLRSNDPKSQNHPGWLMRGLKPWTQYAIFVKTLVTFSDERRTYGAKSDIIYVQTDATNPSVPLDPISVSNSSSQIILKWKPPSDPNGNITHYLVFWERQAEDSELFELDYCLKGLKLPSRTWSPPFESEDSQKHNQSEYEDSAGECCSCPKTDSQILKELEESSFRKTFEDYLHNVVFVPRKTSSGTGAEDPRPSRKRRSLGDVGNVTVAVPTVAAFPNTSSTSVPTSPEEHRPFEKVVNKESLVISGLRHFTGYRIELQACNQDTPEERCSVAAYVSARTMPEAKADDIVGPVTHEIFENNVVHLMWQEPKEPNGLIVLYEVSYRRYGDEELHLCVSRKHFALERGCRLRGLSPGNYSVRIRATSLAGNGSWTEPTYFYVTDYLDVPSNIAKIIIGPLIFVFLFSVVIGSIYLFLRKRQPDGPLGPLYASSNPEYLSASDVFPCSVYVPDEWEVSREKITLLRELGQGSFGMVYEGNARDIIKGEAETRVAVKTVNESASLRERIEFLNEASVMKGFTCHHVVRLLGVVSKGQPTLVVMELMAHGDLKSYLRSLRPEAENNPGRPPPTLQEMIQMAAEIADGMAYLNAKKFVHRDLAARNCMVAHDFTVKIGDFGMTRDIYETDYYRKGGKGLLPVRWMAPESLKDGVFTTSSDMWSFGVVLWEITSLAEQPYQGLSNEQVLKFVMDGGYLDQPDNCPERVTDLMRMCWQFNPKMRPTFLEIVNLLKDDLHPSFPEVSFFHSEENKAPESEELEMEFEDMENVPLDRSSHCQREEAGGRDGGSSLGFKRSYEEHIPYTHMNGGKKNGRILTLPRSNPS
Description: Cells were lysed, and IR phosphorylations were tested by ELISA. The IR phosphorylation activities of the tested compounds were expressed as a percentage of the vehicle. […] The cell lysates were analyzed by immunoblotting with various indicated antibodies. The phosphorylated IR was immunoprecipitated using PY20 and analyzed by immunoblotting with anti-IR13 antibody. […] The phosphorylation of each receptor was determined by Western blot using specific antibodies as indicated. […] Then the cells were lysated and the transfected receptor fused to His tag were pulled down with Ni+ beads, followed by western blot against anti-p-Tyr and anti-His. The cell lysates were tested with anti-p-Akt and anti-Akt.
Whether 4524-E7 can activate other receptors of RTK family was tested. […] To further explore the specificity, several hybrid recombinant RTKs were generated by replacing IGFR and EGFR's extracellular domain (ECD) with IR's ECD. Moreover, IGFR's intracellular domain (ICD) was substituted with IR's ICD, and the His-tagged receptors were transfected into CHO cells and treated with 4524-E7 for 30 min.

[8] = target: T4, IR; test: Cell-based ELISA of IR tyrosine phosphorylation in CHO-IR cells; parameters: expressed in transfected cells; host or cells: CHO (CHO-IR, gift from Dr. Nicholas Webster, UCSD)
Description: A cell-based screening assay was developed with Chinese hamster ovary cells stably transfected with IR (CHO-IR) by using an ELISA to determine the IR tyrosine phosphorylation. […] Other 1,4-Napthoquinones that are structurally related to 4524-E7 were evaluated.
CHO-IR cells were seeded in a 96-well plate at 15,000 cells per well in […] of 0.1% FBS medium with 0.1% FBS. […] Cells were lysed, and phosphorylated receptors were captured with pY20 immobilized on ELISA plates. Bound receptors were washed, then detected using an anti-IR beta antibody, followed by an horseradish peroxidase-conjugated secondary antibody and colorimetric detection with 3,3′,5,5′-tetramethylbenzidine.
A cell-based ELISA assay was developed with an IR stably transfected Chinese Hamster Ovary (CHO-IR) cell line. […] The cell lysates were subjected to the sandwich ELISA using immobilized anti-phosphotyrosine antibody and anti-IR antibody.
Target sequence in this assay (P06213 763-1382 limits assumed): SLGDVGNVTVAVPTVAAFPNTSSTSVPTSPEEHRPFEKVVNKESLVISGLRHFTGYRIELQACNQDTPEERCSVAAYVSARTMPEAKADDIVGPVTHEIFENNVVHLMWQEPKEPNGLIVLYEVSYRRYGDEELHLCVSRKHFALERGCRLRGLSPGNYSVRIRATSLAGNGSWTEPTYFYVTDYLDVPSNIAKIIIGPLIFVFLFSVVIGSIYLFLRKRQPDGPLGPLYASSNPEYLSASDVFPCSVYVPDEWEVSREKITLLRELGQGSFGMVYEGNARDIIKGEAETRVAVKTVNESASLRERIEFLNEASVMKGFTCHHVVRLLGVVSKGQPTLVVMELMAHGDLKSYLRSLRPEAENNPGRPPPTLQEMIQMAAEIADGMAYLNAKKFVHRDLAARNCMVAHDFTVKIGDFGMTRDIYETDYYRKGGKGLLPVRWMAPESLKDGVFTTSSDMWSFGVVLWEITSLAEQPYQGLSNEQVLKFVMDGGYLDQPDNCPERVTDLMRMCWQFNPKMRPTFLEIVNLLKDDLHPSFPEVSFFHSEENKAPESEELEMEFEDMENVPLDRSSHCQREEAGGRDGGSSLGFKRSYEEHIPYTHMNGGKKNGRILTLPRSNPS
Target sequence in this assay (P06213 28-758 limits assumed): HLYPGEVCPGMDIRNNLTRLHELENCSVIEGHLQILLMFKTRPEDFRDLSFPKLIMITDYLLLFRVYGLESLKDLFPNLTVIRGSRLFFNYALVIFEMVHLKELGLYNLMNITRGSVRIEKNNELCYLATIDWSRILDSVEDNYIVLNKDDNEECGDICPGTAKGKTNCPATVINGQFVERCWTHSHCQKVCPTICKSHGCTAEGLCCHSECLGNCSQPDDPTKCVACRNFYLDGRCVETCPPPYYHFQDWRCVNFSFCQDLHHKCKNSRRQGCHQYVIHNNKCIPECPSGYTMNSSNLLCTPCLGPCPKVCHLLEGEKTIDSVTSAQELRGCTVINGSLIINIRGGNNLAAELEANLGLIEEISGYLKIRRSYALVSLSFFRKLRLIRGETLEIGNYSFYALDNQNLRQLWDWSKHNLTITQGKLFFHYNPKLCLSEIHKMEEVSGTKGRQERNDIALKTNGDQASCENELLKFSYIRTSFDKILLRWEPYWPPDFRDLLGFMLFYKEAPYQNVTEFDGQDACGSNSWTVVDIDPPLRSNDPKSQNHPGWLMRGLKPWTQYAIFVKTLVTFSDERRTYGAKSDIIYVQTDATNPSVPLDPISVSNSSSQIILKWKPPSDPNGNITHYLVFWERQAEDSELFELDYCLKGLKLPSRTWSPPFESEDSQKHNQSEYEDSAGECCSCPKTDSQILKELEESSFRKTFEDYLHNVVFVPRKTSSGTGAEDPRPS

[9] = target: T5, IGF-IR (Mus musculus, UniProt Q60751); test: IGF-IR activation in mouse muscle and liver; format: in vivo; conditions: C57BL/6J mice, 20 mg/kg oral
T5 construct: from tissue; host or cells: muscle and liver of C57BL/6J mice
T5 sequence (Q60751 31-1373): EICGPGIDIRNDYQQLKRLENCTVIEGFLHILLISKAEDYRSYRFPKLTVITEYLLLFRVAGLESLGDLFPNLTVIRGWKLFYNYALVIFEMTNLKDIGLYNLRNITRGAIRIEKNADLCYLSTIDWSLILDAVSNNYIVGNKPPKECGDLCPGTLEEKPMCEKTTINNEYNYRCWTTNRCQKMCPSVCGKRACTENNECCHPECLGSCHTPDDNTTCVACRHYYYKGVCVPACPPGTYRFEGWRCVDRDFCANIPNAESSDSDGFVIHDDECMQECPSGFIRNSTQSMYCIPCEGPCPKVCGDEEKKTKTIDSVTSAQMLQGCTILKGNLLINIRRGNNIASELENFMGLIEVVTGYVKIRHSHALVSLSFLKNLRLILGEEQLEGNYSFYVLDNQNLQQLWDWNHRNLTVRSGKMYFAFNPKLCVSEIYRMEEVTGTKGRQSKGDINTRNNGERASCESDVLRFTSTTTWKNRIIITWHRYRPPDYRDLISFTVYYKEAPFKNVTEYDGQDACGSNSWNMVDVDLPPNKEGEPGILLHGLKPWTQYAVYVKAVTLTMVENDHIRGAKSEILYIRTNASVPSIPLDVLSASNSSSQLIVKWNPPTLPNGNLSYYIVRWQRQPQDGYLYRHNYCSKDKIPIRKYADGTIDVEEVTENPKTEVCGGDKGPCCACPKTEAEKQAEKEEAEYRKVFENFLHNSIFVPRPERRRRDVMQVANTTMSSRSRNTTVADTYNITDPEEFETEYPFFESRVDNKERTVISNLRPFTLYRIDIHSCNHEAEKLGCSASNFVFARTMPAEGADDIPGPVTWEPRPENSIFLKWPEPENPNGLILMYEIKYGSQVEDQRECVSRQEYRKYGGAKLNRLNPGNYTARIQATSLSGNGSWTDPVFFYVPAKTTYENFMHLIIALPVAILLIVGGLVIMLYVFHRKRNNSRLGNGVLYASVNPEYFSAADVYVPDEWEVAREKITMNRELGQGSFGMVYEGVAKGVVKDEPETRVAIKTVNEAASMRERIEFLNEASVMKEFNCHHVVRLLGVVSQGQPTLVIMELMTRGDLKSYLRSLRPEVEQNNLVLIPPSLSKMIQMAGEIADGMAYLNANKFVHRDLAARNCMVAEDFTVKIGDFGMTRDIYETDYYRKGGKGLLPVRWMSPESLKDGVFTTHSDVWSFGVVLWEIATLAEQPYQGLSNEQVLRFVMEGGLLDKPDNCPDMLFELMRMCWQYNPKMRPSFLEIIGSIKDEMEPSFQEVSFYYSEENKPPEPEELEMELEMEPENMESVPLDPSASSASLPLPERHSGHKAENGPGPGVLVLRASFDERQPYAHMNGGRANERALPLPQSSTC

T2 sequence (P00533 712-979 limits assumed): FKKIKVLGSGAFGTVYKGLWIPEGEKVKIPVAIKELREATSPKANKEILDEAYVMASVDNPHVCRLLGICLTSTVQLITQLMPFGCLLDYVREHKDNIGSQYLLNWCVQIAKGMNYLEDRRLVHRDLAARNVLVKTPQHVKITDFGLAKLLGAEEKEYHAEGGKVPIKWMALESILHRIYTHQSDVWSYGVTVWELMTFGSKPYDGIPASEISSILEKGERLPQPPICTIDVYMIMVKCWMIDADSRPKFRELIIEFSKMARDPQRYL
T3 sequence (P08069 999-1274 limits assumed): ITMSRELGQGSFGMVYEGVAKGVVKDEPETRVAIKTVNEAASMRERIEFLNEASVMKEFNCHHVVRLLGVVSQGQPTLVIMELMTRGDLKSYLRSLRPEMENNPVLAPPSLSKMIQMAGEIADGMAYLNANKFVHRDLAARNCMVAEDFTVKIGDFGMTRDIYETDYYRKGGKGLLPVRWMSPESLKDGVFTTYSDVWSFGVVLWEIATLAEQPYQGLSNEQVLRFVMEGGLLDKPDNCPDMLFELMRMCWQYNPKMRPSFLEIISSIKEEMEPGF

SMILES | TrkB activation [1] | inhibition of FGFR1 [2] | EGFR tyrosine kinase activity (histone phosphorylation) [3] | IGFR tyrosine kinase activity (histone phosphorylation) [4] | kinase stimulatory effect on hybrid kinase [5] | insulin-stimulated suppression of hepatic glucose output [6] | IR activation [7] | IR phosphorylation ([8]; 5 μM, 15 min, CHO-IR cells, ELISA) | concentration at which IR activation peaked ([8]; 15 min, dose-response) [µM] | concentration at which IR activation started ([8]; 15 min, dose-response) [µM] | time at which IR activation is triggered ([8]; 4524-E7 5 μM or insulin 50 nM) [min] | time at which IR activation peaked ([8]; 4524-E7 5 μM or insulin 50 nM) [min] | IGF-IR activation in muscle or liver [9]
O=C1c2ccccc2C(=O)C2SC(Nc3ccc(Cl)cc3)=NC12 (stereo not shown) [4524-E7, 2-((4-chlorophenyl)amino)naphtho[2,3-d]thiazole-4,9(3aH,9aH)-dione] | not any other RTKs | slightly inhibited | no effect | no effect | abolishes the kinase stimulatory effect | potentiated the insulin actions in suppressing hepatic glucose output | selectively activated | about 250 % of basal level | 10 | 2.5 | 5 | 30 | 
CC(=O)Oc1ccc(OC(C)=O)c2c1C(=O)C(Cl)=C(Cl)C2=O [DDN, 5,8-diacetyloxy-2,3-dichloro-1,4-naphthoquinone] |  |  |  |  |  |  |  |  |  |  |  |  | did not stimulate IGF-IR activation
